Patent US20160122320A1, “USEFUL COMBINATIONS OF MONOBACTAM ANTIBIOTICS WITH BETA-LACTAMASE INHIBITORS” (Basilea Pharmaceutica AG, priority 2005, published 2016)

Tests used:
Test in all cases: MIC, NCCLS broth microdilution
Format in all cases: cell-based
[1] = tested on: Klebsiella pneumoniae CF104
Description: (§1) Antimicrobial activity of the compounds and of their combinations was determined against a selection of organisms according to the standard procedures described by the National Committee for Clinical Laboratory Standards (National Committee for Clinical Laboratory. Standards (2000). Methods for Dilution Antimicrobial Susceptibility Tests for Bacteria That Grow Aerobically-Fifth Edition: Approved Standard M7-A5. NCCLS, Wayne, Pa., USA).
(§2) In all cases the final concentration of DMSO incubated with the bacteria is less than or equal to 1%. […] Plates were incubated overnight at an appropriate temperature (30° C. or 37° C.) and optical densities assessed by eye. The MIC value is defined as the lowest compound concentration completely inhibiting visible growth of the test organism. When combinations between compounds of formula I with compounds of formula II and are evaluated the compounds of formula I are tested in dilution series as described above while the compounds of formula II and III-XIII were present in all wells at a constant concentration of 4 μg/mL each.

[2] = tested on: Pseudomonas aeruginosa MK1184
[3] = tested on: Enterobacter cloacae ATCC13047/CRO-R
Description: as §1, §2

[4] = tested on: Enterobacter cloacae M4018
Description: as §2

Serratia marcescens S6 = tested on: Serratia marcescens S6
Description: as §1, §2

[5] = tested on: Enterobacter aerogenes Zayakosky; settings: Enterobacter aerogenes Zayakosky
Description: as §1, §2

Enterobacter cloacae P99 = tested on: Enterobacter cloacae P99
[6] = with clavulanate (clavulanic acid)
[7] = + compound 323 and clavulanate, 4 mg/L each

CC1C(NC(=O)C(=NOCc2cc(=O)c(O)cn2O)c2csc(N)n2)C(=O)N1S(=O)(=O)O (stereo not shown) [Compound 1]
MIC of antibiotic ([1]; antibiotic alone, no inhibitor): >32 µg/mL | MIC of antibiotic at fixed inhibitor concentration of 4 mg/L ([1]; with 102 and clavulanate): 1 µg/mL | MIC of antibiotic at fixed inhibitor concentration of 4 mg/L ([1]; with 111 and clavulanate): <0.06 µg/mL | MIC of antibiotic at fixed inhibitor concentration of 4 mg/L ([1]; with 202 and clavulanate): 2 µg/mL | MIC of antibiotic at fixed inhibitor concentration of 4 mg/L ([1]; with 206 and clavulanate): 0.25 µg/mL | MIC of antibiotic at fixed inhibitor concentration of 4 mg/L ([1]; with 323 and clavulanate): 2 µg/mL | MIC of antibiotic at fixed inhibitor concentration of 4 mg/L ([1]; with 323 and sulbactam): 1 µg/mL | MIC of antibiotic at fixed inhibitor concentration of 4 mg/L ([1]; with 324 and clavulanate): 1 µg/mL | MIC of antibiotic at fixed inhibitor concentration of 4 mg/L ([1]; with 501): 0.5 µg/mL | MIC of antibiotic at fixed inhibitor concentration of 4 mg/L [1, 6]: 0.5 µg/mL | MIC of antibiotic ([2]; antibiotic alone, no inhibitor): >32 µg/mL | MIC of antibiotic at fixed inhibitor concentration of 4 mg/L ([2]; with 102 and clavulanate): 4 µg/mL | MIC of antibiotic at fixed inhibitor concentration of 4 mg/L ([2]; with 103 and clavulanate): 8 µg/mL | MIC of antibiotic at fixed inhibitor concentration of 4 mg/L ([2]; with 111 and clavulanate): 8 µg/mL | MIC of antibiotic at fixed inhibitor concentration of 4 mg/L ([2]; with 202 and clavulanate): 8 µg/mL | MIC of antibiotic at fixed inhibitor concentration of 4 mg/L ([2]; with 206 and clavulanate): >32 µg/mL | MIC of antibiotic at fixed inhibitor concentration of 4 mg/L ([2]; with 323 and clavulanate): 16 µg/mL | MIC of antibiotic at fixed inhibitor concentration of 4 mg/L ([2]; with 323 and sulbactam): 4 µg/mL | MIC of antibiotic at fixed inhibitor concentration of 4 mg/L ([2]; with 501): >32 µg/mL | MIC of antibiotic at fixed inhibitor concentration of 4 mg/L [2, 6]: >32 µg/mL | Minimal Inhibitory Concentration of antibiotic at fixed inhibitor concentration of 4 mg/L ([3]; + clavulanate 4 mg/L): >32 mg/L | Minimal Inhibitory Concentration of antibiotic at fixed inhibitor concentration of 4 mg/L ([3]; + compound 206 4 mg/L): >32 mg/L | Minimal Inhibitory Concentration of antibiotic at fixed inhibitor concentration of 4 mg/L [3, 7]: 8 mg/L | Minimal Inhibitory Concentration of antibiotic at fixed inhibitor concentration of 4 mg/L ([3]; + compound 501 4 mg/L): >32 mg/L | Minimal Inhibitory Concentration of antibiotic ([3]; antibiotic alone): >32 mg/L | Minimal Inhibitory Concentration of antibiotic at fixed inhibitor concentration of 4 mg/L ([4]; + clavulanate 4 mg/L): >32 mg/L | Minimal Inhibitory Concentration of antibiotic at fixed inhibitor concentration of 4 mg/L ([4]; + compound 206 4 mg/L): 8 mg/L | Minimal Inhibitory Concentration of antibiotic at fixed inhibitor concentration of 4 mg/L [4, 7]: 2 mg/L | Minimal Inhibitory Concentration of antibiotic at fixed inhibitor concentration of 4 mg/L ([4]; + compound 501 4 mg/L): 16 mg/L | Minimal Inhibitory Concentration of antibiotic ([4]; antibiotic alone): 32 mg/L | MIC of antibiotic at fixed inhibitor concentration of 4 mg/L (Serratia marcescens S6; with 111 and clavulanate): 0.25 µg/mL | MIC of antibiotic at fixed inhibitor concentration of 4 mg/L (Serratia marcescens S6; with 202 and clavulanate): 0.5 µg/mL | MIC of antibiotic at fixed inhibitor concentration of 4 mg/L (Serratia marcescens S6; with 206 and clavulanate): 4 µg/mL | MIC of antibiotic at fixed inhibitor concentration of 4 mg/L (Serratia marcescens S6; with 323 and clavulanate): 0.25 µg/mL | MIC of antibiotic at fixed inhibitor concentration of 4 mg/L (Serratia marcescens S6; with 323 and sulbactam): 0.5 µg/mL | MIC of antibiotic at fixed inhibitor concentration of 4 mg/L (Serratia marcescens S6; with 324 and clavulanate): 1 µg/mL | MIC of antibiotic at fixed inhibitor concentration of 4 mg/L (Serratia marcescens S6; with 501): 4 µg/mL | MIC of antibiotic at fixed inhibitor concentration of 4 mg/L (Serratia marcescens S6; [6]): 4 µg/mL | Minimal Inhibitory Concentration of antibiotic at fixed inhibitor concentration of 4 mg/L ([5]; + clavulanate 4 mg/L): >32 mg/L | Minimal Inhibitory Concentration of antibiotic at fixed inhibitor concentration of 4 mg/L ([5]; + compound 206 4 mg/L): >32 mg/L | Minimal Inhibitory Concentration of antibiotic at fixed inhibitor concentration of 4 mg/L [5, 7]: 16 mg/L | Minimal Inhibitory Concentration of antibiotic at fixed inhibitor concentration of 4 mg/L ([5]; + compound 501 4 mg/L): >32 mg/L | Minimal Inhibitory Concentration of antibiotic ([5]; antibiotic alone): >32 mg/L | MIC of antibiotic (Enterobacter cloacae P99; antibiotic alone, no inhibitor): >32 µg/mL | MIC of antibiotic at fixed inhibitor concentration of 4 mg/L (Enterobacter cloacae P99; with 102 and clavulanate): 4 µg/mL | MIC of antibiotic at fixed inhibitor concentration of 4 mg/L (Enterobacter cloacae P99; with 111 and clavulanate): 4 µg/mL | MIC of antibiotic at fixed inhibitor concentration of 4 mg/L (Enterobacter cloacae P99; with 202 and clavulanate): 16 µg/mL | MIC of antibiotic at fixed inhibitor concentration of 4 mg/L (Enterobacter cloacae P99; with 206 and clavulanate): 8 µg/mL | MIC of antibiotic at fixed inhibitor concentration of 4 mg/L (Enterobacter cloacae P99; with 323 and clavulanate): 4 µg/mL
